# Results: patent US5968940A, “Retinoids and methods of use of same” (priority 1996, dated 1999)
# Columns and labels:
# [1] = test system: Human promyelocytic leukemia HL-60 cells; assay: Cell differentiation of HL-60 cells, nitroblue tetrazolium (NBT) reduction / morphology; assay type: cell-based
# Protocol: Human promyelocytic leukemia HL-60 cells were cultured in RPMI-1640 medium supplemented by 10% heat-inactivated calf serum and 100 U/ml of penicillin plus 100 μg/ml of streptomycin. The flasks containing cells and medium were incubated in an incubator with 5% CO2 at 37° C. Log phase cells were seeded into the medium at a concentration of 1.2×10^5to 1.4×10^5 cells per ml and cultured in flasks containing 5 ml of medium. Each group consisted of three flasks. Different concentrations of coumarin-retinoids were added. At intervals following the addition of coumarin-retinoids to the cultures, a small portion of cells was removed and live cells were counted under a light microscope using a dye-exclusionmethod with trypan blue. Cell differentiation was judged in terms of morphology and nitroblue tetrazolium (NBT) reduction.
# For a determination of NBT reducing activity, a portion of the coumarin-retinoid-treated cells was removed at intervals following treatment and centrifuged. After centrifugation, 0.5 ml of 0.1% NBT (containing 100 ng TPA) was added to each tube. The contents of the test tubes were then incubated for 1 hour at 37° C. Cell smears were prepared from the cell sediment and stained using the Wright-Giemsa technique. For each smear prepared, 200 cells were isolated for examination under a light microscope with an oil immersion lens. Cells stained with blue-black granules were considered NBT-positive cells. The 50% differentiation or effective concentration (ED50 or EC50) is shown in terms of molar (M) concentration of the […] tested.
# For a determination of cell morphology, a cell smear was prepared at intervals following treatment of cells for each coumarin-retinoid concentration group using the Wright-Giemsa stain technique. Stained cells were counted and classified under a light microscope with an oil immersion lens. After treatment with coumarin-retinoids, the morphological development of HL-60 cells proceeded toward mature granulocytes. This development was manifested by decreased cell volume; a lower nuclei to cytoplasm ratio; smaller or missing nuclei; concentration of chromatin; and the appearance of a certain proportion of intermediate and late granuloblasts (progranulocytes), elongated rod granulocytes, and granulocytes with branched nuclei.
# (§1) The protocols of Examples 14 and 21 were used, for the NBT and MTT assays, respectively.
# [2] = test system: lipid peroxidation of rat liver microsome; assay: Inhibition of Fe+2/Cys induced lipid peroxidation of rat liver microsome; assay type: biochemical
# Protocol: Lipid peroxidation was induced by adding 1 mM FeSO4 and 10 mM cysteine to the microsome fraction of rat liver with the incubations being carried out at 37° C. for 30 minutes in a reaction mixture containing 10 mM phosphate buffer (pH 7.4). The reaction was terminated by the addition of 0.3 ml of 20% trichloroacetic acid solution. Thiobarbituric acid was then added and the mixture was boiled for 10 minutes. After cooling the test tubes under running tap water, the optical density at 532 nm was measured. Lipid peroxidation in both the treated groups and the control group was expressed in nmol MDA/mg protein. The percentage inhibition indicates the anti-oxidation properties of the coumarin retinoids tested.
# [3] = test system: bone abnormalities in mouse fetus; assay: Bone abnormalities in mouse fetus; assay type: in vivo
# Protocol: (§2) Female mice were examined by vaginal smear the morning after being caged with male mice, and if sperm or a vaginal plug was discovered, then the mice were determined to be pregnant. The retinoids were administered at the dosage indicated starting on the seventh day of pregnancy and continued once a day for the next ten days. On the 20th day after the female mice were determined to be pregnant, they were sacrificed by cervical dislocation. Both sides of the uterus were checked and the number of living embryos, dead embryos, and absorbed embryos were counted. The living embryos were further examined for bone abnormalities.
# After the embryos became transparent, they were dissected and their skeletons were checked by observation under a microscope.
# fetus absorption in mice = assay: Effect on fetus absorption in mice; assay type: in vivo
# Protocol: as §2
# chondrosarcoma = assay: Growth of chondrosarcoma in rats; assay type: in vivo; settings: for Body Weight final: in g (unit assumed)
# Source text: Transplantable chondrosarcomas obtained from Dr. Trown, Hoffman--La Roche Institute of Molecular Biology and Wistar rats obtained from the Breeding Center of Experimental Animals, Chinese Academy of Medical Sciences were used. According to the routine transplantation protocol as described in Cancer Treatment Reports 60(11):1647-1653 (1976) where the small pieces of chondrosarcoma tumor were implanted subcutaneously in the right inguinal region of rats using a trocar. Tumor-bearing rats were randomized to a control group and a treated group. Each group consisted of ten rats. […] Sixty days after transplantation, the rats were sacrificed and the tumor weight was determined. The inhibition rate was calculated according to the following formula: [formula]
# [4] = test system: croton oil induced ear edema in mice; assay: Croton oil induced ear edema in mice; assay type: in vivo
# Protocol: ICR mice (body weight 18-20 grams) were used. Each group consisted of 10 mice. After three dosage treatments, the left ears of the mice in both the treated group and the control group were painted with 2% croton oil in 0.05 ml ether. All the mice were sacrificed six hours later and the ears of both sides were punched by a corneal knife and weighed, the difference of the ear weight of both sides for each mouse was calculated. The t- Student test was used for statistical calculation. Croton oil induced ear edema is a classical assay for evaluation of cancer promotion.
# [5] = test system: Ornithine decarboxylase (ODC); assay: Croton oil induced ornithine decarboxylase (ODC) activity in mouse epidermis; assay type: in vivo; settings: ICR mice, single dose pretreatment; FIG. 1, n=3
# Protocol: ICR mice (6-8 weeks old) were pretreated with a single dose of coumarin retinoid. On the third day, the animals received a topical application of 0.2 ml of 1% croton oil in acetone. All animals were sacrificed five hours after the croton oil treatment and the epidermis was separated by a brief heat treatment at 52° C. for 30 seconds and minced in a blender. The cell suspension and broth were separated by a centrifugation at 30,000×g for 30 seconds and the supernatant was obtained. Ornithine decarboxylase (ODC) enzyme activity was determined by measuring the release of CO2 from L-(^14 C)-ornithine and expressed as nmole CO2 /30 min/mg protein and the results for coumarin retinoid I-10 and I-6 are shown in FIG. 1. […] ODC activity is a critical parameter for monitoring cancer chemoprevention or promotion.
# HL-60 cells = assay: MTT assay, inhibition of HL-60 cells; assay type: cell-based, human; settings: HL-60, Table 15
# Protocol: Human cancer cell lines (KB, A2780, MCF-7, HL-60, A549) were used. For a monolayer culture, 0.5 ml of trypsin solution ([…]) was added to the flasks for digestion. Microtiter plates (96 well) were used for the cell culture and 200 μl of cell suspension (1200 tumor cells) were placed in each well and incubated at 37° C. for 24 hours. Following the addition of the test compound, the control and treated flasks were placed in a CO2 incubator for 5 day culture. For the MTT assay, 200 μl of MTT solution (5 mg in 10 ml of phosphate buffer) plus the medium were added and incubated for another 4 hours. Following incubation, the supernatant was discarded and 200 μl of DMSO was added to each well. With a mild agitation the OD values were determined by the MR 700 Elisa at 570 nm (reference wavelength was 450 nm). The ED50 of the compound and tumor cell survival rate [formula] as percent inhibition were calculated.
# as §1
# [6] = 20 mg/kg once a day from day 7 of pregnancy
# [7] = 40 mg/kg once a day from day 7 of pregnancy
smiles,measurement,setting,value
CC(=O)c1cc2ccc(OC(=O)/C=C(C)/C=C/C=C(C)/C=C/C3=C(C)CCCC3(C)C)c(C(=O)O)c2oc1=O [Compound I-5],NBT (+) %,[1]; 10^-4 M,69%
same,NBT (+) %,[1]; 10^-5 M,89%
same,NBT (+) %,[1]; 10^-7 M,41%
same,Inhibition (%) of lipid peroxidation,[2]; 1 μM,7.3%
same,Inhibition (%) of lipid peroxidation,[2]; 10 μM,16.6%
same,Lipid Peroxidation,"[2]; 10 μM, n = 3, p < 0.05",1.95 ± 0.18 μM MDA/mg protein
same,Inhibition (%) of lipid peroxidation,[2]; 100 μM,36.6%
same,Lipid Peroxidation,"[2]; 100 μM, n = 3, p < 0.01",1.43 ± 0.16 μM MDA/mg protein
CC(=O)c1cc2ccc(OC(=O)/C=C(C)/C=C/C=C(C)/C=C/C3=C(C)CCCC3(C)C)c(OC(=O)/C=C(C)/C=C/C=C(C)/C=C/C3=C(C)CCCC3(C)C)c2oc1=O [Compound I-9],"Delayed Calcification, Occipital delay/fetus number",[3]; 20 mg/kg,0/75
same,"Delayed Calcification, Sternum delay/fetus number",[3]; 20 mg/kg,0/75
same,"Delayed Calcification, Occipital delay/fetus number",[3]; 40 mg/kg,3/77
same,"Delayed Calcification, Sternum delay/fetus number",[3]; 40 mg/kg,2/77
same,"Fetus Absorption, absorbed number/implanted number",fetus absorption in mice; [6],0/113
same,"Fetus Absorption, absorbed number/implanted number",fetus absorption in mice; [7],0/119
same,NBT (+) %,[1]; 10^-5 M,96%
same,NBT (+) %,[1]; 10^-6 M,88%
same,NBT (+) %,[1]; 10^-7 M,55%
same,NBT (+) %,[1]; 10^-8 M,31%
CC(=O)c1cc2c(OC(=O)/C=C(C)/C=C/C=C(C)/C=C/C3=C(C)CCCC3(C)C)cc(OC(=O)/C=C(C)/C=C/C=C(C)/C=C/C3=C(C)CCCC3(C)C)cc2oc1=O [Compound I-10],"Delayed Calcification, Occipital delay/fetus number",[3]; 20 mg/kg,22/66
same,"Delayed Calcification, Sternum delay/fetus number",[3]; 20 mg/kg,14/66
same,"Delayed Calcification, Occipital delay/fetus number",[3]; 40 mg/kg,15/81
same,"Delayed Calcification, Sternum delay/fetus number",[3]; 40 mg/kg,21/81
same,Inhibition rate (%),chondrosarcoma; 5 mg/kg P.O. (Table 13),14.8%
same,Tumor Weight,chondrosarcoma; 5 mg/kg P.O. (Table 13),12.1 grams
same,Animals final,"chondrosarcoma; 5 mg/kg P.O., initial 10 (Table 13)",10
same,Body Weight final,"chondrosarcoma; 5 mg/kg P.O., initial 97.8 (Table 13)",258.4
same,Tumor Weight,chondrosarcoma; 10 mg/kg P.O.,12.8 grams
same,Animals final,"chondrosarcoma; 10 mg/kg P.O., initial 10",9
same,Body Weight final,"chondrosarcoma; 10 mg/kg P.O., initial 98.2",248.0
same,Tumor Weight,chondrosarcoma; 20 mg/kg P.O.,8.2 grams
same,Animals final,"chondrosarcoma; 20 mg/kg P.O., initial 10",9
same,Body Weight final,"chondrosarcoma; 20 mg/kg P.O., initial 97.4",253.1
same,Ear Edema (x ± SD),[4]; 50 mg/kg,14.2 ± 2.3 mg
same,IR (%),[4]; 50 mg/kg,14%
same,Ear Edema (x ± SD),[4]; 100 mg/kg,11.3 ± 3.0 mg
same,IR (%),[4]; 100 mg/kg,32%
same,inhibition of croton oil induced ODC activity,[5],significantly inhibited the ODC activity induced by croton oil
same,"Fetus Absorption, absorbed number/implanted number",fetus absorption in mice; [6],0/104
same,"Fetus Absorption, absorbed number/implanted number",fetus absorption in mice; [7],0/107
same,NBT (+) %,[1]; 6.4 × 10^-6 M,99%
same,NBT (+) %,[1]; 6.4 × 10^-7 M,96%
same,NBT (+) %,[1]; 6.4 × 10^-8 M,82%
same,NBT (+) %,[1]; 6.4 × 10^-9 M,33%
same,NBT (+) %,[1]; 6.4 × 10^-10 M,10%
"CC1=C(/C=C/C(C)=C/C=C/C(C)=C/C(=O)Oc2cc(=O)oc3ccc(C(C)(C)C)cc23)C(C)(C)CCC1 [Compound I-28, 4-retinoyloxy-6-t-butyl-coumarin]",EC50,HL-60 cells; Homo sapiens,> 10 µM
CC1=C(/C=C/C(C)=C/C=C/C(C)=C/C(=O)Oc2cc(=O)oc3c(C)cccc23)C(C)(C)CCC1 [Compound I-29],EC50,HL-60 cells; Homo sapiens,1.9 µM
CC1=C(/C=C/C(C)=C/C=C/C(C)=C/C(=O)Oc2ccc3c(C)cc(=O)oc3c2C)C(C)(C)CCC1 [Compound I-30],EC50,HL-60 cells; Homo sapiens,> 10 µM
"CCc1cc2c(C)cc(=O)oc2cc1OC(=O)/C=C(C)/C=C/C=C(C)/C=C/C1=C(C)CCCC1(C)C [Compound I-31, 4-methyl-6-ethyl-7-retinoyloxy-coumarin]",EC50,HL-60 cells; Homo sapiens,> 10 µM
"CC1=C(/C=C/C(C)=C/C=C/C(C)=C/C(=O)Oc2ccc3c(C)cc(=O)oc3c2)C(C)(C)CCC1 [Compound I-32, 4-methyl-7-retinoyloxy-coumarin]",EC50,HL-60 cells,11 µM
same,EC50,"[1]; HL-60, Table 15, read-out: NBT ED50",13 µM
"CC1=C(/C=C/C(C)=C/C=C/C(C)=C/C(=O)Oc2cc(OC(=O)/C=C(C)/C=C/C=C(C)/C=C/C3=C(C)CCCC3(C)C)c3c(C)cc(=O)oc3c2)C(C)(C)CCC1 [Compound I-33, 4-methyl-5,7-diretinoyloxy-coumarin]",EC50,HL-60 cells; Homo sapiens,3.2 µM
"CCCCCCc1cc2c(C)cc(=O)oc2cc1OC(=O)/C=C(C)/C=C/C=C(C)/C=C/C1=C(C)CCCC1(C)C [Compound I-34, 4-methyl-6-hexyl-7-retinoyloxy-coumarin]",EC50,HL-60 cells; Homo sapiens,> 10 µM
"CC1=C(/C=C/C(C)=C/C=C/C(C)=C/C(=O)Oc2cc(=O)oc3ccc(C)cc23)C(C)(C)CCC1 [Compound I-35, 4-retinoyloxy-6-methyl-coumarin]",EC50,HL-60 cells; Homo sapiens,2.6 µM
"CC1=C(/C=C/C(C)=C/C=C/C(C)=C/C(=O)Oc2ccc3c(C)cc(=O)oc3c2OC(=O)/C=C(C)/C=C/C=C(C)/C=C/C2=C(C)CCCC2(C)C)C(C)(C)CCC1 [Compound I-36, 4-methyl-7,8-diretinoyloxy-coumarin]",EC50,HL-60 cells; Homo sapiens,3.2 µM
CC1=C(/C=C/C(C)=C/C=C/C(C)=C/C(=O)Nc2ncnc3c2ncn3C(=O)/C=C(C)/C=C/C=C(C)/C=C/C2=C(C)CCCC2(C)C)C(C)(C)CCC1 [II-A],Animals final,"chondrosarcoma; 2 mg/kg × 10, initial 10",9
same,Body Weight final,"chondrosarcoma; 2 mg/kg × 10, initial 74.1",130.6
same,Inhibition rate (%),chondrosarcoma; 5 mg/kg × 10 (Table 14),62.6%
same,Tumor Weight,chondrosarcoma; 5 mg/kg × 10 (Table 14),4.0 grams
same,Animals final,"chondrosarcoma; 5 mg/kg × 10, initial 10 (Table 14)",9
same,Body Weight final,"chondrosarcoma; 5 mg/kg × 10, initial 71.7 (Table 14)",129.2
same,Absorbed Number,"fetus absorption in mice; 20 mg/kg, implanted number 141, 12 pregnant mice",10
same,Absorbed Number,"fetus absorption in mice; 40 mg/kg, implanted number 181, 15 pregnant mice",17
